Source: PubChem BioAssay (NCI)
Where “and” joins values, the source holds several entries; their conditions need not be identical. Equal values may be shown once.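 These data come from cells grown in 96-well plates and exposed to compound for 48 hours at five concentrations. GI50 marks 50% less growth. TGI: total growth inhibition.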

Experiments:
Assay in all cases: NCI anticancer screen, dose series, 48 h
[1] = test system: RPMI-8226 leukemia
[2] = test system: TK-10 renal
[3] = test system: ACHN renal
[4] = test system: K-562 leukemia
[5] = test system: A498 renal
[6] = test system: SF-268 CNS
[7] = test system: SNB-19 CNS
[8] = test system: UACC-257 melanoma
[9] = test system: NCI-H460 lung
[10] = test system: MCF7 breast

Row | Compound | GI50 [1] | TGI [1] | GI50 [2] | TGI [2] | GI50 [3] | TGI [3] | GI50 [4] | TGI [4] | GI50 [5] | TGI [5] | GI50 [6] | TGI [6] | GI50 [7] | TGI [7] | GI50 [8] | TGI [8] | TGI [9] | GI50 [10] | TGI [10] | GI50 [9]
1 | O=C1c2cccc(NCCN=Cc3cc([N+](=O)[O-])ccc3O)c2C(=O)c2c(NCCN=Cc3cc([N+](=O)[O-])ccc3O)cccc21 | 1.03 µM | 4.35 µM | 28.5 µM | > 100 µM | 5.61 µM | > 100 µM | 3.67 µM | > 100 µM | 3.73 µM | 31.6 µM | 2.42 µM | > 100 µM | 6.95 µM | > 100 µM | > 100 µM | > 100 µM | – | – | – | –
2 | CC(=O)NNc1nc(C)c(C(=O)/C=C/c2ccccc2Cl)s1 | – | > 100 µM | – | > 100 µM | – | > 100 µM | – | > 100 µM | – | > 100 µM | – | > 100 µM | – | > 100 µM | – | > 100 µM | > 100 µM | – | – | –
3 | COC(=O)C(C#CCCCCC#CC(NC(=O)OCc1ccccc1)(C(=O)OC)C(F)(F)F)(NC(=O)OCc1ccccc1)C(F)(F)F (centres undefined) | – | > 100 µM | – | > 100 µM | – | > 100 µM | – | > 100 µM | – | > 100 µM | – | > 100 µM | – | > 100 µM | – | > 100 µM | > 100 µM | – | – | –
4 | c1ccc(CN2CCC3(CC2)SSC2(CCN(Cc4ccccc4)CC2)S3)cc1 | – | 98.4 µM | – | > 100 µM | – | > 100 µM | – | > 100 µM | – | – | – | – | – | – | – | > 100 µM | 84.6 µM | – | – | –
5 | CCC1CN2C(=N1)c1ccccc1-c1cc(Cl)ccc12 (centres undefined) | – | – | 4.79 µM | 32.8 µM | 1.75 µM | 4.21 µM | 2.39 µM | 7.1 µM | 3.01 µM | 12.1 µM | 2.96 µM | 11.6 µM | 5.85 µM | 30.5 µM | 2.96 µM | 10.3 µM | 10.5 µM | 2.45 µM | 14.1 µM | 2.15 µM
6 | Cc1ccc([N+](=O)[O-])cc1NC(=O)/C(=N/NC(=S)NN)C1SC(=S)NC1=O (centres undefined) | – | > 100 µM | – | > 100 µM | – | > 100 µM | – | > 100 µM | – | > 100 µM | – | > 100 µM | – | > 100 µM | – | > 100 µM | > 100 µM | – | – | –
7 | COc1cc([C@@H]2c3cc4c(cc3[C@@H](OC(=O)c3ccc(N)cc3)C3COC(=O)[C@@H]32)OCO4)cc(OC)c1O (some centres undefined) | – | 58 µM | – | 94.2 µM | – | 28.2 µM | – | > 95 µM | – | 31.5 µM | – | > 95 µM | – | > 95 µM | – | > 95 µM | 46.7 µM | – | – | –
8 | O=C(CC(=O)C1=CNc2ccccc2S1)C(=O)Nc1ccc(Cl)cc1 | – | > 50 µM | – | > 50 µM | – | > 50 µM | – | > 50 µM | – | > 50 µM | – | > 50 µM | – | > 50 µM | – | > 50 µM | > 50 µM | – | – | –
9 | C1=CC=C2NCCCCCCCNC3=CC=CC=CC3=NCCCCCCCN=C2C=C1 | – | > 100 µM | – | – | – | > 100 µM | – | > 100 µM | – | – | – | > 100 µM | – | > 100 µM | – | > 100 µM | > 100 µM | – | – | –
10 | COC1OC(CBr)C(OC(=O)c2ccccc2)C(O)C1Br (centres undefined) | – | > 100 µM | – | > 100 µM | – | – | – | > 100 µM | – | > 100 µM | – | > 100 µM | – | > 100 µM | – | > 10 µM | > 100 µM | – | – | –
11 | COC1/C=C/C(C)C(C(C)C(OC)C(C)CCC(=O)C(C)C(C/C=C/N(C)C=O)OC)OC(=O)/C=C/C=C(\C)CC(OC)CC2=CC(=O)O[C@H](C2)C(C)C(OC)CC(OC)/C=C/C(C)C(OC)C1 (some centres undefined) | – | 0.0194 µM | 0.0174 µM | 0.0729 µM | 0.0282 µM | – | 0.00105 µM | – | 0.0176 µM | 0.0508 µM | 0.04 µM | 0.485 µM and 0.612 µM | 0.052 µM | 0.212 µM and 0.0904 µM | – | 0.0257 µM | 0.118 µM and 0.097 µM | – | – | 0.01 µM
12 | C[C@]12CCC(=O)C=C1CC[C@@H]1C2CC[C@]2(C)Nc3c(cnn3-c3ccccc3)CC12 (some centres undefined) | – | > 100 µM | – | > 100 µM | – | > 100 µM | – | > 100 µM | – | > 100 µM | – | – | – | – | – | > 100 µM | > 100 µM | – | – | –
13 | O=C(O/C(=C(/N=Nc1ccccc1)c1ccccc1)c1ccccc1)c1ccccc1 | – | > 100 µM | – | > 100 µM | – | > 100 µM | – | > 100 µM | – | – | – | – | – | > 100 µM | – | > 100 µM | > 100 µM | – | – | –
14 | O=C(NC(=O)c1cn(CCN(CCO)C(=O)NCCCCCCNC(=O)N(CCO)CCn2cc(C(=O)NC(=O)OCc3ccccc3)c(=O)[nH]c2=O)c(=O)[nH]c1=O)OCc1ccccc1 | – | > 100 µM | – | > 100 µM | – | > 100 µM | – | > 100 µM | – | – | – | – | – | > 100 µM | – | > 100 µM | > 100 µM | – | – | –
15 | COc1ccc2c(c1)[n+]([O-])c(-c1ccc(OC)c(OC)c1)c(N)[n+]2[O-] | – | > 100 µM | – | > 100 µM | – | > 100 µM | – | > 100 µM | – | > 100 µM | – | > 100 µM | – | > 100 µM | – | > 100 µM | > 100 µM | – | – | –
16 | O=C1C2C3C=C4c5ccccc5N(c5ccccc5)C4(C2C(=O)N1c1ccc(Cl)cc1)[C@H]1C(=O)N(c2ccc(Cl)cc2)C(=O)[C@@H]31 (some centres undefined) | – | > 100 µM | – | > 100 µM | – | – | – | > 100 µM | – | > 100 µM | – | – | – | > 100 µM | – | > 100 µM | > 100 µM | – | – | –
17 | C#CC1(O)C(COP(=O)(O)OC(COCCCCCCCCCCCCCCCCCC)COP(=O)(O)OCC2OC(n3cc(F)c(=O)[nH]c3=O)CC2O)OC(n2ccc(N)nc2=O)C1O (centres undefined) | – | – | – | 9.09 µM and 3.83 µM | – | > 100 µM | – | > 100 µM and 16.7 µM | 0.389 µM and 0.189 µM | 14 µM and 5.12 µM | – | 15.9 µM and 15.1 µM | – | 16.7 µM and 15.1 µM | – | 97.5 µM and 55.8 µM | 15.3 µM and 15.1 µM | – | – | –
18 | NC(=O)c1ccc(I)c(N=O)c1 | 36.9 µM | 88.7 µM | 34.9 µM | > 100 µM | 30.8 µM | > 100 µM | – | – | – | – | 62.1 µM | > 100 µM | > 100 µM | > 100 µM | 35.3 µM | > 100 µM | > 100 µM | 39.6 µM | > 100 µM | 62.6 µM
19 | COc1ccc(/C=C/C(=O)c2ccc(O)c(CN3CCN(c4cc5c(cc4F)c(=O)c(C(=O)O)cn5C4CC4)CC3)c2)cc1 | – | – | 7.16 µM | 74.6 µM | 2.18 µM | 17.9 µM | 0.463 µM | > 100 µM | 1.34 µM | 5.54 µM | 2.32 µM | > 100 µM | 0.785 µM | > 100 µM | 2.17 µM | 69.9 µM | > 100 µM | 0.456 µM | > 100 µM | 6.08 µM
